Our source for the IC50 values is patent publication US20220289727A1, “ENZYME INHIBITORS” (KALVISTA PHARMACEUTICALS LIMITED, priority 2019, published 2022).

In the test the target is T1, Human Factor XIIa (Homo sapiens, UniProt P00748).
T1 construct: Human Factor XIIa (Enzyme Research Laboratories) was incubated; purchased Enzyme Research Laboratories
T1 sequence (P00748 373-615 limits assumed): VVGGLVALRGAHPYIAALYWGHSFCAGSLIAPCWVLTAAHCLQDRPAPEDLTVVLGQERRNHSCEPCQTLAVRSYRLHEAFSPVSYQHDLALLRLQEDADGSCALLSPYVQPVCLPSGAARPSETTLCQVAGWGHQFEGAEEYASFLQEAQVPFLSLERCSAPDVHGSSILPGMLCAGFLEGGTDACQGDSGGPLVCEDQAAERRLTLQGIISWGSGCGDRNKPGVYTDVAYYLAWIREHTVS
T1 sequence (P00748 20-372 partner limits assumed): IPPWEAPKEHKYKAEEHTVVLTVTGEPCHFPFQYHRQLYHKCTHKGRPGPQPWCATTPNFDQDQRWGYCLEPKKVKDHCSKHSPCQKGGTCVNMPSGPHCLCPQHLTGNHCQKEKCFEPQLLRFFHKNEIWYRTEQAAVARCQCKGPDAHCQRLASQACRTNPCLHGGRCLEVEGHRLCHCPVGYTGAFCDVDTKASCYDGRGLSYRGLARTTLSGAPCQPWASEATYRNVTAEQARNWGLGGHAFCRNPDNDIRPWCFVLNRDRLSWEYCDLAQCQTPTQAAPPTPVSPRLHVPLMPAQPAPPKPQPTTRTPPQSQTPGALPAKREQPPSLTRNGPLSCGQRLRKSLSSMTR
In words: Determination of FXIIa inhibitory activity in vitro (fluorogenic substrate H-DPro-Phe-Arg-AFC). To be noted: 25° C., residual enzyme activity (initial rate). Type of test: biochemical.
`CN(C)Cc1sc(C(=O)NCc2ccc3c(N)nccc3c2)cc1Cl` [Example 2.01]: the IC50 (commonly the point on the concentration scale where inhibition reaches its midpoint) lay within 10 to 40 µM.

`Nc1nccc2cc(CNC(=O)c3cc(Cl)c(CNCc4ccccc4)s3)ccc12` [Example 2.02] yielded a half-inhibitory concentration (IC50) of 10 to 40 µM.

In the case of `Nc1nccc2cc(CNC(=O)c3cc(Cl)c(CNc4ccccc4)s3)ccc12` [Example 2.03], the IC50 was 10 to 40 µM.

In turn, `Nc1nccc2cc(CNC(=O)c3cc(Cl)c(CNCCN4CCCCC4)s3)ccc12` [Example 2.04] returned an IC50 of 3 to 10 µM.

As for `COc1ccc(CNCc2sc(C(=O)NCc3ccc4c(N)nccc4c3)cc2Cl)cc1` [Example 2.05], the half-inhibitory concentration (IC50) lay within 10 to 40 µM.

The compound `COc1cccc(CNCc2sc(C(=O)NCc3ccc4c(N)nccc4c3)cc2Cl)c1` [Example 2.06] had a concentration for half-maximal inhibition (IC50) of 10 to 40 µM.

The compound `COc1ccccc1CNCc1sc(C(=O)NCc2ccc3c(N)nccc3c2)cc1Cl` [Example 2.07] had an IC50 of 10 to 40 µM.

As for `CN(C)c1ccccc1CNCc1sc(C(=O)NCc2ccc3c(N)nccc3c2)cc1Cl` [Example 2.08], the concentration for half-maximal inhibition (IC50) fell in the range of 10 to 40 µM.

Turning to `COCCNCc1sc(C(=O)NCc2ccc3c(N)nccc3c2)cc1Cl` [Example 2.09], the concentration for half-maximal inhibition (IC50) fell in the range of 10 to 40 µM.

In turn, `Nc1nccc2cc(CNC(=O)c3cc(Cl)c(CNCC4CCOCC4)s3)ccc12` [Example 2.10] came in with an IC50 of 10 to 40 µM.

Take `CS(=O)(=O)c1ccc(CNCc2sc(C(=O)NCc3ccc4c(N)nccc4c3)cc2Cl)cc1` [Example 2.11, N-[(1-Aminoisoquinolin-6-yl)methyl]-4-chloro-5-({[(4-methanesulfonylphenyl)methyl]amino}methyl)thiophene-2-carboxamide]: the concentration for half-maximal inhibition (IC50) lay within 3 to 10 µM.

On to `CS(=O)(=O)c1cccc(CNCc2sc(C(=O)NCc3ccc4c(N)nccc4c3)cc2Cl)c1` [Example 2.12], for which the half-inhibitory concentration (IC50) was in the range of 3 to 10 µM.

`CS(=O)(=O)c1ccccc1CNCc1sc(C(=O)NCc2ccc3c(N)nccc3c2)cc1Cl` [Example 2.13] gave an IC50 of 10 to 40 µM.

Turning to `N#Cc1cccc(CNCc2sc(C(=O)NCc3ccc4c(N)nccc4c3)cc2Cl)c1` [Example 2.15], the IC50 lay in the range of 10 to 40 µM.

`CN(C)CCNCc1sc(C(=O)NCc2ccc3c(N)nccc3c2)cc1Cl` [Example 2.16]: the IC50 lay in the range of 3 to 10 µM.

Compound `Nc1nccc2cc(CNC(=O)c3cc(Cl)c(CNC4CCOCC4)s3)ccc12` [Example 2.17] returned a half-inhibitory concentration (IC50) of 10 to 40 µM.

As for `Nc1nccc2cc(CNC(=O)c3cc(Cl)c(CNCCN4CCOCC4)s3)ccc12` [Example 2.18], the IC50 fell in the range of 10 to 40 µM.

The compound `CN1CCN(CCNCc2sc(C(=O)NCc3ccc4c(N)nccc4c3)cc2Cl)CC1` [Example 2.19] gave a concentration for half-maximal inhibition (IC50) of 3 to 10 µM.

Regarding `CN1CCC(CNCc2sc(C(=O)NCc3ccc4c(N)nccc4c3)cc2Cl)CC1` [Example 2.20], the IC50 is 3 to 10 µM.

Turning to `Nc1nccc2cc(CNC(=O)c3cc(Cl)c(CNCCOc4ccccc4)s3)ccc12` [Example 2.21], the half-inhibitory concentration (IC50) lay within 10 to 40 µM.

Turning to `Nc1nccc2cc(CNC(=O)c3cc(Cl)c(CNCCCOc4ccccc4)s3)ccc12` [Example 2.22], the IC50 is 10 to 40 µM.

Turning to `Nc1nccc2cc(CNC(=O)c3cc(Cl)c(CNCCn4ccnc4)s3)ccc12` [Example 2.23], the 50% inhibitory concentration (IC50) is 10 to 40 µM.

In turn, `CC(=O)N1CCN(CCNCc2sc(C(=O)NCc3ccc4c(N)nccc4c3)cc2Cl)CC1` [Example 2.24] came in with an IC50 of 10 to 40 µM.

Regarding `Nc1nccc2cc(CNC(=O)c3cc(Cl)c(CNCCN4CCS(=O)(=O)CC4)s3)ccc12` [Example 2.25], the IC50 lay in the range of 10 to 40 µM.

In turn, `CC(C)CCNCc1sc(C(=O)NCc2ccc3c(N)nccc3c2)cc1Cl` [Example 2.26] gave a concentration for half-maximal inhibition (IC50) of 10 to 40 µM.

The compound `CC(=O)NCCNCc1sc(C(=O)NCc2ccc3c(N)nccc3c2)cc1Cl` [Example 2.27] gave an IC50 of 10 to 40 µM.

In turn, `Nc1nccc2cc(CNC(=O)c3cc(Cl)c(CNCc4ccc5c(c4)OCO5)s3)ccc12` [Example 2.28] had an IC50 of 10 to 40 µM.

As for `CN1CCCc2cc(CNCc3sc(C(=O)NCc4ccc5c(N)nccc5c4)cc3Cl)ccc21` [Example 2.29], the IC50 was 10 to 40 µM.

Turning to `Nc1nccc2cc(CNC(=O)c3cc(Cl)c(CNCc4ccccn4)s3)ccc12` [Example 2.30], the IC50 was 10 to 40 µM.

`Nc1nccc2cc(CNC(=O)c3cc(Cl)c(CNCc4ccncc4)s3)ccc12` [Example 2.31] returned a 50% inhibitory concentration (IC50) of 3 to 10 µM.

For `Nc1nccc2cc(CNC(=O)c3cc(Cl)c(CNCc4cccnc4)s3)ccc12` [Example 2.32], the IC50 lay within 3 to 10 µM.

In turn, `CN(C)CCCNCc1sc(C(=O)NCc2ccc3c(N)nccc3c2)cc1Cl` [Example 2.33] came in with a concentration for half-maximal inhibition (IC50) of 3 to 10 µM.

`CC(C)N1CCN(CCCNCc2sc(C(=O)NCc3ccc4c(N)nccc4c3)cc2Cl)CC1` [Example 2.34] gave an IC50 of 3 to 10 µM.

The compound `CN(C)CCOc1ccc(CNCc2sc(C(=O)NCc3ccc4c(N)nccc4c3)cc2Cl)cc1` [Example 2.35] yielded an IC50 of 3 to 10 µM.

As for `CN1CCN(CCCNCc2sc(C(=O)NCc3ccc4c(N)nccc4c3)cc2Cl)CC1` [Example 2.37], the IC50 was in the range of 3 to 10 µM.

`Nc1nccc2cc(CNC(=O)c3cc(Cl)c(CNCCN4CCCC4=O)s3)ccc12` [Example 2.38] yielded an IC50 of 10 to 40 µM.

On to `CN1CCN(c2ccccc2CNCc2sc(C(=O)NCc3ccc4c(N)nccc4c3)cc2Cl)CC1` [Example 2.39], for which the IC50 was 10 to 40 µM.

`Nc1nccc2cc(CNC(=O)c3cc(Cl)c(CNCC4CCN(Cc5ccccc5)CC4)s3)ccc12` [Example 2.40] showed a concentration for half-maximal inhibition (IC50) of 3 to 10 µM.

The compound `Nc1nccc2cc(CNC(=O)c3cc(Cl)c(CNCc4ccc(N5CCCCC5=O)cc4)s3)ccc12` [Example 2.41] registered an IC50 of 10 to 40 µM.

For the compound `Nc1nccc2cc(CNC(=O)c3cc(Cl)c(CNCc4cccc(N5CCCC5=O)c4)s3)ccc12` [Example 2.42], the 50% inhibitory concentration (IC50) was 10 to 40 µM.

On to `Nc1nccc2cc(CNC(=O)c3cc(Cl)c(CNCC(=O)NC4CCCC4)s3)ccc12` [Example 2.43], for which the concentration for half-maximal inhibition (IC50) fell in the range of 10 to 40 µM.

Turning to `CN(Cc1sc(C(=O)NCc2ccc3c(N)nccc3c2)cc1Cl)CC1CCN(c2ccncc2)CC1` [Example 2.44], the IC50 is 3 to 10 µM.

The compound `CN(C)CCCOc1cccc(CN(C)Cc2sc(C(=O)NCc3ccc4c(N)nccc4c3)cc2Cl)c1` [Example 2.45] yielded an IC50 of 3 to 10 µM.

For the compound `CN(Cc1sc(C(=O)NCc2ccc3c(N)nccc3c2)cc1Cl)C1CCOCC1` [Example 2.46], the half-maximal inhibitory concentration (IC50) was in the range of 10 to 40 µM.

Regarding `CN1CCC(N(C)Cc2sc(C(=O)NCc3ccc4c(N)nccc4c3)cc2Cl)CC1` [Example 2.47], the half-maximal inhibitory concentration (IC50) lay within 10 to 40 µM.

As to `COc1ccc(NCc2sc(C(=O)NCc3ccc4c(N)nccc4c3)cc2Cl)cc1` [Example 2.48], the half-inhibitory concentration (IC50) lay within 10 to 40 µM.

Compound `CS(=O)(=O)c1ccc(NCc2sc(C(=O)NCc3ccc4c(N)nccc4c3)cc2Cl)cc1` [Example 2.49] displayed a half-inhibitory concentration (IC50) of 3 to 10 µM.

Turning to `N#Cc1ccc(CNCc2sc(C(=O)NCc3ccc4c(N)nccc4c3)cc2Cl)cc1` [Example 2.50], the IC50 is 10 to 40 µM.

On to `CC(=O)NCCCNCc1sc(C(=O)NCc2ccc3c(N)nccc3c2)cc1Cl` [Example 2.51], for which the IC50 is 10 to 40 µM.

`CN(C)CCCOc1cccc(CNCc2sc(C(=O)NCc3ccc4c(N)nccc4c3)cc2Cl)c1` [Example 2.52] yielded a 50% inhibitory concentration (IC50) of 3 to 10 µM.

`CN1C(C)(C)CC(NCc2sc(C(=O)NCc3ccc4c(N)nccc4c3)cc2Cl)CC1(C)C` [Example 2.53] yielded an IC50 of 3 to 10 µM.

Regarding `Nc1nccc2cc(CNC(=O)c3cc(Cl)c(CNCCn4cncn4)s3)ccc12` [Example 2.54], the IC50 lay in the range of 3 to 10 µM.

`CC(=O)Nc1cccc(NCc2sc(C(=O)NCc3ccc4c(N)nccc4c3)cc2Cl)c1` [Example 2.55] displayed a 50% inhibitory concentration (IC50) of 10 to 40 µM.

For the compound `CC(C)N(CCNCc1sc(C(=O)NCc2ccc3c(N)nccc3c2)cc1Cl)C(C)C` [Example 2.56], the IC50 is 3 to 10 µM.

`Nc1nccc2cc(CNC(=O)c3cc(Cl)c(CNCc4ccc(CN5CCCC5=O)cc4)s3)ccc12` [Example 2.57] registered an IC50 of 3 to 10 µM.

Compound `Nc1nccc2cc(CNC(=O)c3cc(Cl)c(CN4CCN(Cc5cccnc5)CC4)s3)ccc12` [Example 5.01] yielded an IC50 of 10 to 40 µM.

The compound `CN1CCCN(Cc2sc(C(=O)NCc3ccc4c(N)nccc4c3)cc2Cl)CC1` [Example 5.02] yielded a half-inhibitory concentration (IC50) of 3 to 10 µM.

`Nc1nccc2cc(CNC(=O)c3cc(Cl)c(CN4CCOCC4)s3)ccc12` [Example 5.03]: the half-maximal inhibitory concentration (IC50) fell in the range of 10 to 40 µM.

Turning to `CN1CCN(Cc2sc(C(=O)NCc3ccc4c(N)nccc4c3)cc2Cl)CC1` [Example 5.04], the IC50 lay in the range of 10 to 40 µM.

As to `CC(=O)N1CCN(Cc2sc(C(=O)NCc3ccc4c(N)nccc4c3)cc2Cl)CC1` [Example 5.05], the IC50 fell in the range of 10 to 40 µM.

As for `CC(C)N1CCN(Cc2sc(C(=O)NCc3ccc4c(N)nccc4c3)cc2Cl)CC1` [Example 5.06], the IC50 lay within 10 to 40 µM.

For `CS(=O)(=O)N1CCN(Cc2sc(C(=O)NCc3ccc4c(N)nccc4c3)cc2Cl)CC1` [Example 5.07], the 50% inhibitory concentration (IC50) is 10 to 40 µM.

The compound `Nc1nccc2cc(CNC(=O)c3cc(Cl)c(CN4CCC(F)(F)C4)s3)ccc12` [Example 5.08] displayed an IC50 of 10 to 40 µM.

As for `Nc1nccc2cc(CNC(=O)c3cc(Cl)c(CN4Cc5ccccc5C4)s3)ccc12` [Example 5.09], the 50% inhibitory concentration (IC50) lay within 10 to 40 µM.

Consider `Nc1nccc2cc(CNC(=O)c3cc(Cl)c(CN4CCc5ncccc5C4)s3)ccc12` [Example 5.10], for which the IC50 was 3 to 10 µM.

The compound `Nc1nccc2cc(CNC(=O)c3cc(Cl)c(CN4CC(O)C4)s3)ccc12` [Example 5.11] registered a half-inhibitory concentration (IC50) of 10 to 40 µM.
